13 compounds from patent US20250215030A1, “STAT MODULATORS AND USES THEREOF” (Recludix Pharma, Inc., priority 2022, published 2025) can be followed below.

The target in test [1] is T1, Recombinant STAT3 protein (STAT3(G127-I722)) (Homo sapiens, UniProt P40763).
T1 construct: STAT3(G127-I722)
In words: STAT3 Fluorescence Polarization (FP) Assay. Format: binding. The following applies: STAT3(G127-I722) 25 nM, probe 5-FAM-GpYLPQTV-NH2 2 nM, 45-minute incubation. A digest of the protocol: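 Serially diluted compounds (1% DMSO) were mixed with 2 nM fluorescent phosphotyrosine peptide and 25 nM STAT3 construct G127-I722, pH 7.4, incubated 45 min at room temperature. IC50 values from fitted polarization curves are reported as categories A (≤100 nM), B, C, D (>10 μM).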

Test [2] concerns the target T2, Recombinant STAT6 protein (STAT6(W123-T658)) (Homo sapiens, UniProt P42226).
T2 construct: STAT6(W123-T658)
T2 sequence (P42226 123-658): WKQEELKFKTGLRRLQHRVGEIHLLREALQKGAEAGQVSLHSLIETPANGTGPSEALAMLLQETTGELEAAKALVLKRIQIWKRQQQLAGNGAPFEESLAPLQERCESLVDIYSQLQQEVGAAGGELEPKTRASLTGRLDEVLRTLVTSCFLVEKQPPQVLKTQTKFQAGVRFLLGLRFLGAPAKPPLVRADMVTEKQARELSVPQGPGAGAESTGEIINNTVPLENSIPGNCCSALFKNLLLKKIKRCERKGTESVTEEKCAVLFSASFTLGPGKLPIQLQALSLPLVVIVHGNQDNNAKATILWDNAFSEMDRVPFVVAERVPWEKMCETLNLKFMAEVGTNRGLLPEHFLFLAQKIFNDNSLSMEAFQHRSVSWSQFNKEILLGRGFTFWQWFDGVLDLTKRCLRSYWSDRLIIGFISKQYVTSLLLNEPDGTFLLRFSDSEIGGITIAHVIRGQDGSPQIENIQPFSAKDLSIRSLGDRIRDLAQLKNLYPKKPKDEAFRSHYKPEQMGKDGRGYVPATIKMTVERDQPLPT
The test is described as follows: STAT6 Fluorescence Polarization (FP) Assay. It is filed as binding. Conditions: STAT6(W123-T658) 250 nM, probe 5-FAM-ApYKPFQDLI-NH2 2 nM, 45-minute incubation. The method, boiled down:
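Competitive displacement of a fluorescent phosphotyrosine peptide (2 nM) from recombinant STAT6 W123-T658 (250 nM), 45 min at room temperature in 10 mM HEPES pH 7.4, 50 mM NaCl, 2 mM DTT. mP fitted against log compound for IC50, grouped A (≤300 nM) to D (>30 μM).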
(Fluorescence polarisation rises when a labelled molecule tumbles more slowly, as on binding a larger partner.)

T1 sequence (P40763 127-722, species assumed): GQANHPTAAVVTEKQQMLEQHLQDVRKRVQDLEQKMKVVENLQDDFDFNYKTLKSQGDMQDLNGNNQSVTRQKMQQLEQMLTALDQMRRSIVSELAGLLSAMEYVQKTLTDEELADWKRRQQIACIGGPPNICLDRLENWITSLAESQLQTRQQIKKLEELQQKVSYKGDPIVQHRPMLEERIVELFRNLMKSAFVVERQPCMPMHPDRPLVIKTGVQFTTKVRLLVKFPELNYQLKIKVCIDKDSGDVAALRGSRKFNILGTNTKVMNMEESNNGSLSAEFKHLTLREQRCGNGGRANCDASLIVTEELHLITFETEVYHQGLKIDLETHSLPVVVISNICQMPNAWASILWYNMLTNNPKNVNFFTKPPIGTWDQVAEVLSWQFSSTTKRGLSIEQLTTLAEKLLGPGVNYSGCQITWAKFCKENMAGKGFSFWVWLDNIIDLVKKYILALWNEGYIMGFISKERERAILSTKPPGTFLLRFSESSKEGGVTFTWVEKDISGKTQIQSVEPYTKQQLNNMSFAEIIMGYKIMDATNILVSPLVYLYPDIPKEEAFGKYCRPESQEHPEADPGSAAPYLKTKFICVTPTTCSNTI

A word on the IC50: it is the concentration that gives 50% inhibition. Turning to `O=C(N[C@H]1C[C@@H]2C[C@@H]2C[C@H]2CC[C@@H](C(=O)N3CCN(C(=O)[C@H]4CCOC4)CC3)N2C1=O)c1cc2cc(C(F)(F)P(=O)(O)O)ccc2s1` [Example 8, (Difluoro(2-(((3S,6S,7aS,8aR,9aR)-5-oxo-3-(4-((S)-tetrahydrofuran-3-carbonyl)piperazine-1-carbonyl)decahydro-1H-cyclopropa[d]pyrrolo[1,2-a]azocin-6-yl)carbamoyl)benzo[b]thiophen-5-yl)methyl)phosphonic acid], the IC50 fell in the range of 100 to 1000 nM in test [1] and 3000 to 30000 nM in test [2].
For `CC(=O)N1C[C@H](NC(=O)[C@@H]2CC[C@@H]3C[C@H]4C[C@H]4C[C@H](NC(=O)c4cc5cc(C(F)(F)P(=O)(O)O)ccc5s4)C(=O)N32)[C@@H](O)C1` [Example 9, ((2-(((3S,6S,7aS,8aR,9aR)-3-(((3S,4S)-1-acetyl-4-hydroxypyrrolidin-3-yl)carbamoyl)-5-oxodecahydro-1H-cyclopropa[d]pyrrolo[1,2-a]azocin-6-yl)carbamoyl)benzo[b]thiophen-5-yl)difluoromethyl)phosphonic acid] the same measures were 100 to 1000 nM and 300 to 3000 nM.
In the case of `C[C@@]12C[C@H]3CC[C@@H](C(=O)N4CC(c5cccnc5)C4)N3C(=O)[C@@H](NC(=O)c3cc4cc(C(F)(F)P(=O)(O)O)ccc4s3)C[C@@H]1C2` [Example 230, (difluoro(2-(((3S,6S,7aS,8aR,9aR)-8a-methyl-5-oxo-3-(3-(pyridin-3-yl)azetidine-1-carbonyl)decahydro-1H-cyclopropa[d]pyrrolo[1,2-a]azocin-6-yl)carbamoyl)benzo[b]thiophen-5-yl)methyl)phosphonic acid], the IC50 in test [1] was < 100 nM; in test [2], 300 to 3000 nM.
As to `C[C@]12CC[C@H](NC(=O)c3cc4cc(C(F)(F)P(=O)(O)O)ccc4s3)C(=O)N3[C@H](CC[C@H]3C(=O)N3CC(c4cccnc4)C3)[C@H]1C2` [Example 234, (difluoro(2-(((3S,6S,8aR,9aS,9bR)-8a-methyl-5-oxo-3-(3-(pyridin-3-yl)azetidine-1-carbonyl)decahydro-1H-cyclopropa[c]pyrrolo[1,2-a]azocin-6-yl)carbamoyl)benzo[b]thiophen-5-yl)methyl)phosphonic acid], the IC50 is < 100 nM in test [1] and 3000 to 30000 nM in test [2].
For the compound `C[C@]12CC[C@H](NC(=O)c3cc4cc(CP(=O)(O)O)ccc4s3)C(=O)N3[C@H](CC[C@H]3C(=O)N3CC(c4cccnc4)C3)[C@H]1C2` [Example 235, ((2-(((3S,6S,8aR,9aS,9bR)-8a-methyl-5-oxo-3-(3-(pyridin-3-yl)azetidine-1-carbonyl)decahydro-1H-cyclopropa[c]pyrrolo[1,2-a]azocin-6-yl)carbamoyl)benzo[b]thiophen-5-yl)methyl)phosphonic acid], the IC50 in test [1] is 100 to 1000 nM; in test [2], > 30000 nM.
For `COC1(c2nccn2C)CN(C(=O)[C@@H]2CC[C@@H]3C[C@@]4(C)C[C@H]4C[C@H](NC(=O)c4cc5cc(C(F)(F)P(=O)(O)O)ccc5s4)C(=O)N32)C1` [Example 237, (difluoro(2-(((3S,6S,7aS,8aR,9aR)-3-(3-methoxy-3-(1-methyl-1H-imidazol-2-yl)azetidine-1-carbonyl)-8a-methyl-5-oxodecahydro-1H-cyclopropa[d]pyrrolo[1,2-a]azocin-6-yl)carbamoyl)benzo[b]thiophen-5-yl)methyl)phosphonic acid] the same measures were 100 to 1000 nM and 3000 to 30000 nM.
For `C[C@]12C[C@H]3CC[C@@H](C(=O)N4CC(c5cccnc5)C4)N3C(=O)[C@@H](NC(=O)c3cc4cc(CP(=O)(O)O)ccc4s3)C[C@H]1C2` [Example 238, ((2-(((3S,6S,7aR,8aS,9aR)-8a-methyl-5-oxo-3-(3-(pyridin-3-yl)azetidine-1-carbonyl)decahydro-1H-cyclopropa[d]pyrrolo[1,2-a]azocin-6-yl)carbamoyl)benzo[b]thiophen-5-yl)methyl)phosphonic acid] the same measures were 100 to 1000 nM and > 30000 nM.
For the compound `Cc1ccncc1C1CN(C(=O)[C@@H]2CC[C@@H]3C[C@@H]4C[C@@H]4C[C@H](NC(=O)c4cc5cc(CP(=O)(O)O)ccc5s4)C(=O)N32)C1` [Example 243, ((2-(((3S,6S,7aR,8aS,9aR)-3-(3-(4-methylpyridin-3-yl)azetidine-1-carbonyl)-5-oxodecahydro-1H-cyclopropa[d]pyrrolo[1,2-a]azocin-6-yl)carbamoyl)benzo[b]thiophen-5-yl)methyl)phosphonic acid], the IC50 in test [1] was < 100 nM; in test [2], > 30000 nM.
As for `CC(=O)N1C[C@H](NC(=O)[C@@H]2CC[C@@H]3C[C@@H]4C[C@@H]4C[C@H](NC(=O)c4cc5cc(CP(=O)(O)O)ccc5s4)C(=O)N32)[C@@H](F)C1` [Example 244, ((2-(((3S,6S,7aR,8aS,9aR)-3-(((3S,4S)-1-acetyl-4-fluoropyrrolidin-3-yl)carbamoyl)-5-oxodecahydro-1H-cyclopropa[d]pyrrolo[1,2-a]azocin-6-yl)carbamoyl)benzo[b]thiophen-5-yl)methyl)phosphonic acid], the IC50 was 1000 to 10000 nM in test [1] and 3000 to 30000 nM in test [2].
In the case of `O=C(N[C@H]1C[C@@H]2C[C@@H]2C[C@H]2CC[C@@H](C(=O)N[C@H]3CN(c4ccccn4)C[C@@H]3F)N2C1=O)c1cc2cc(CP(=O)(O)O)ccc2s1` [Example 246, ((2-(((3S,6S,7aS,8aR,9aR)-3-(((3S,4S)-4-fluoro-1-(pyridin-2-yl)pyrrolidin-3-yl)carbamoyl)-5-oxodecahydro-1H-cyclopropa[d]pyrrolo[1,2-a]azocin-6-yl)carbamoyl)benzo[b]thiophen-5-yl)methyl)phosphonic acid], the IC50 in test [1] was 100 to 1000 nM; in test [2], 3000 to 30000 nM.
For `O=C(N[C@H]1C[C@@H]2C[C@@H]2C[C@H]2CC[C@@H](C(=O)N3CC(c4cnccc4F)C3)N2C1=O)c1cc2cc(CP(=O)(O)O)ccc2s1` [Example 247, ((2-(((3S,6S,7aS,8aR,9aR)-3-(3-(4-fluoropyridin-3-yl)azetidine-1-carbonyl)-5-oxodecahydro-1H-cyclopropa[d]pyrrolo[1,2-a]azocin-6-yl)carbamoyl)benzo[b]thiophen-5-yl)methyl)phosphonic acid] the same measures were < 100 nM and > 30000 nM.
Take `O=C(N[C@H]1C[C@H]2C[C@H]2C[C@H]2CC[C@@H](C(=O)N3CC(c4cnccc4F)C3)N2C1=O)c1cc2cc(C(F)P(=O)(O)O)ccc2s1` (stereo partly drawn) [Example 248, (fluoro(2-(((3S,6S,7aR,8aS,9aR)-3-(3-(4-fluoropyridin-3-yl)azetidine-1-carbonyl)-5-oxodecahydro-1H-cyclopropa[d]pyrrolo[1,2-a]azocin-6-yl)carbamoyl)benzo[b]thiophen-5-yl)methyl)phosphonic acid]: the IC50 in test [1] was < 100 nM; in test [2], 300 to 3000 nM.
Regarding `O=C(N[C@H]1C[C@H]2C[C@H]2C[C@H]2CC[C@@H](C(=O)N3CC(c4cnccc4F)C3)N2C1=O)c1cc2cc(CP(=O)(O)O)ccc2s1` [Example 250, ((2-(((3S,6S,7aR,8aS,9aR)-3-(3-(4-fluoropyridin-3-yl)azetidine-1-carbonyl)-5-oxodecahydro-1H-cyclopropa[d]pyrrolo[1,2-a]azocin-6-yl)carbamoyl)benzo[b]thiophen-5-yl)methyl)phosphonic acid], the IC50 in test [1] was < 100 nM; in test [2], 3000 to 30000 nM.
